In paper PMC5736175, “Nicotinic alpha 7 receptor agonists EVP-6124 and BMS-933043, attenuate scopolamine-induced deficits in visuo-spatial paired associates learning” (PLoS ONE, 2017):
Values joined by “and” are separate entries in the source; they are usually repeats but may differ in a detail not shown here. Equal values may be shown once.

Legend:
[1] = Plasma concentration in vsPAL subjects immediately after completion of testing (LC-MS/MS); conditions: individual subjects
Description: For all compounds, plasma pharmacokinetic studies were conducted in a separate cohort of cynomolgus monkeys (N = 2–3 subjects per dose) before beginning vsPAL testing to help guide dose selection. Blood samples were obtained with the animals awake and sitting in a primate chair. For most test sessions with BMS-933043 and EVP-6124, plasma samples were also taken from a subset of vsPAL subjects (N = 4–5) immediately after completion of testing (mean (SD) sample collection time = 69.8 (9.8) min post injection).
(§1) Plasma concentrations of test compounds were determined using LC-MS/MS assays. In brief, 50 μL plasma and sample containing compounds was extracted by protein precipitation method with 150 μL acetonitrile containing an internal standard. A 5 μL sample of supernatant was injected into the LC-MS/MS system. Analytes were separated by reversed phase chromatography and detection of each analyte was achieved through selected reaction monitoring mode of mass spectrometry. Samples were quantified by calculated peak area ratio of analyte and internal standard against a calibration curve.

[2] = Plasma pharmacokinetics in satellite animals (LC-MS/MS), 60 min after i.m. dose; conditions: individual subjects
Description: For all compounds, plasma pharmacokinetic studies were conducted in a separate cohort of cynomolgus monkeys (N = 2–3 subjects per dose) before beginning vsPAL testing to help guide dose selection. Blood samples were obtained with the animals awake and sitting in a primate chair.
as §1

[3] = test system: 5-HT3 receptor; conditions: cited from earlier work
[4] = parameters: method as in PMID 25438724; conditions: 20 mg dose (maximal DSST effects), cited from earlier work
[5] = test system: human nAChR α7; parameters: method as in PMID 20959364, PMID 22085888; conditions: xenopus oocytes expressing human nAChR α7; cited from earlier work
[6] = test system: human nAChR α7; parameters: method as in PMID 27467081; conditions: intrinsic activity; HEK293 cells expressing human nAChR α7; cited from earlier work

Cl.O=C(N[C@H]1CN2CCC1CC2)c1cc2cccc(Cl)c2s1 [EVP-6124, (R)-7-chloro-N-(quinuclidin-3-yl)benzo[b]thiophene-2-carboxamide HCl]
nM total compound in plasma post session ([1]; 0.003 mg/kg i.m.): 0.5 nM and 1.4 nM and 1.6 nM and 1.1 nM and 0.496 nM | nM total compound in plasma post session ([1]; 0.01 mg/kg i.m., row): 1.526 nM and 1.174 nM and 1.539 nM | nM total compound in plasma post session ([1]; 0.03 mg/kg i.m.): 4.44 nM and 6.8 nM and 3.56 nM | nM total compound in plasma post session ([1]; 0.10 mg/kg i.m.): 14.8 nM and 14.9 nM and 11.8 nM and 10.9 nM | nM total compound in plasma post session ([1]; 0.30 mg/kg i.m.): 76.7 nM and 38.4 nM and 48.3 nM and 47.3 nM | nM total compound in plasma post session ([1]; 1.00 mg/kg i.m.): 196 nM and 145 nM and 188 nM and 192 nM | nM total compound in plasma from satellite animals, 60 min ([2]; 0.03 mg/kg i.m.): 4.1 nM and 3.5 nM | nM total compound in plasma from satellite animals, 60 min ([2]; 0.10 mg/kg i.m.): 9.5 nM | nM total compound in plasma from satellite animals, 60 min ([2]; 0.30 mg/kg i.m.): 39.6 nM | nM total compound in plasma from satellite animals, 60 min ([2]; 1.00 mg/kg i.m.): 103.0 nM | 5-HT3 receptor antagonism [3]: potent 5-HT3 receptor antagonists | plasma Cmax [4]: 10.4 ng/mL | Cmax ([4]; read-out: plasma Cmax): 32 nM | maximal peak current, % of the acetylcholine response [5]: 80% | net charge relative to acetylcholine [6]: 136% | peak current response relative to acetylcholine [6]: 32%
